Where “and” joins values, the source holds several entries; their conditions need not be identical. Equal entries are not always repeated. Where two headings read alike, the source gives them in different places. Marks after values point to notes of the source that are not given here.
Columns and labels:
breast cancer (MX-1) = type: in vivo, female nude mice; settings: 100 mg/kg ip ×10; for T/C: tumor volume
Description: A patch of breast cancer [cancer cells recommended by National Cancer Institute (NCI) of the U.S.A.] (MX-1) measuring approximately 2 x 2 mm in area was transplanted to each of female nude mice five weeks old. To the mice, an aqueous solution of the aforementioned heteropoly acid salt (Compound M) was administered at a dose of 100 mg/kg once a day by intraperitoneal injection for 10 consecutive days on elapse of 17 days following the transplantation of tumor (ip). For 15 days following the stop of the administration, the volumes of tumor in the mice were measured to evaluate the effect of compound. At ip (x 10), significant suppression of hyperplasia appeared around the 4th day and a strong supression of hyperplasia of cancer was maintained even after 25 days following the completion of transplantation. For comparison, mice to which no aqueous solution was administered were similarly tested.

MM-46 breast cancer = type: in vivo, female C3H/He mice; settings: for T/C: tumor weight
Description: The heteropoly acid salt (Compound M) mentioned above was dissolved in distilled water to obtain an aqueous solution containing the compound in a concentration of 10 mg/ml. This aqueous solution was administered to female C3H/He mice (five weeks old) to which MM-46 breast cancer had been transplanted, to test the compound for antineoplastic activity. To be more specific, the MM-46 breast cancer was transplanted to the mice in a ratio of 1.0 x 10^5 cells per mouse and the aqueous solution was administered (at a dose of 100 mg and a dose of 200 mg per kg of body weight) intraperitoneally (ip) or orally (po) for 9 consecutive days. After elapse of 14 days following the stop of the administration, the sizes of tumor were measured. For comparison, mice to which no aqueous solution was administered were similarly tested.

[1] = tested on: methyl cholanthrene A tumor; assay: Methyl cholanthrene A tumor, evaluation by size of tumor (Examples 31 to 33); type: in vivo, female BALB/C mice
Description: A heteropoly acid salt, Na5[IM06O24]•34H2O (Compound M), and other compounds (Compounds N and O ) were severally dissolved in distilled water to obtain aqueous solutions containing the salts in a fixed concentration of 10 mg/ml. To female BALB/C mice (five weeks old) to which methyl cholanthrene A tumor had been transplanted, the aqueous solutions were administered to test the compounds for antineoplastic activity. To be specific, the methyl cholanthrene A was transplanted to the mice at a ratio of 1.0 x 10^5 cells per mouse and the aqueous solutions were administered ([…]) for 9 consecutive days by intraperitoneal injection. On elapse of 14 and 21 days after the stop of the administration, the sizes of tumors in the mice were measured. For comparison, mice to which no aqueous solution was administered and mice to which aminonitrosourea was administered were similarly tested.

methyl cholanthrene A [2] = assay: Methyl cholanthrene A tumor, evaluation by elongation of period of survival (Examples 31, 34 and 35); type: in vivo, female BALB/C mice; settings: 100 mg/kg, ip × 9 (D1~D9)
Description: The active compounds, M to 0, mentioned above were severally dissolved in distilled water to obtain aqueous solutions containing the compounds in a fixed concentration of 10 mg/ml. To be specific, to female BALB/C mice (five weeks old) to which methyl cholanthrene A had been transplanted in a ratio of 1.0 x 10^5 cells per mouse, […] for 9 consecutive days to determine the mice's periods of survival. For comparison, mice to which no aqueous solution was administered and mice to which aminonitrosourea was administered were similarly tested.

human lung cancer (OAT) = type: in vivo, female ICR/cd-1 mice
Description: A patch of human lung cancer [cancer cells recommended by National Cancer Institute (NCI) of the U.S.A.] (OAT) measuring approximately 1 x 1 mm in area was transplanted beneath the hepatic capsule of each of female ICR/cd-1 mice (18 to 20 g) five to six weeks old (SRC method).
Then, an aqueous solution of 1% by weight of the aforementioned compound M was administered by intraperitoneal injection (ip) at a dose of 100 mg/kg and a dose of 200 mg/kg to the mice once per day for 5 consecutive days. The body weights of the mice and the sizes of tumor in the mice were measured on the 7th day, i.e. after one days interval following the stop of the administration to evaluate the effect of compound.

Test for acute toxicity = type: in vivo, BALB/C mice, nude mice; settings: result in words
methyl cholanthrene A [3] = assay: Methyl cholanthrene A tumor, evaluation by extension of period of survival (Examples 7 to 11); type: in vivo, female BALB/C mice; settings: for Change in body weight: ip×9, D1~D9
Description: The aforementioned compounds, A to D, were severally dissolved in distilled water to obtain aqueous solutions containing the compounds in a fixed concentration of 10 mg/ml. To the female BALB/C mice (five weeks old) to which methyl cholanthrene A had been transplanted in a ratio of 1.0 x 10^5 cells per mouse, […] to determine the mices' periods of survival. For comparison, mice to which no antineoplastic drug was administered and mice to which aminonitroso urea was administered were similarly tested.

Nas [IMo6O24] • 34H2O [Compound M]
Average volume of tumor, Average ±SE (breast cancer (MX-1); day 1): 333.2±25.0 mm^3
Average volume of tumor, Average ±SE (breast cancer (MX-1); day 2): 404.7±16.5 mm^3
T/C (breast cancer (MX-1); day 2): 90.9%
Average volume of tumor, Average ±SE (breast cancer (MX-1); day 3): 510.0±38.8 mm^3
T/C (breast cancer (MX-1); day 3): 88.6%
Average volume of tumor, Average ±SE (breast cancer (MX-1); day 4): 575.0±14.4 mm^3
T/C (breast cancer (MX-1); day 4): 85.9* %
Average volume of tumor, Average ±SE (breast cancer (MX-1); day 5): 555.2±44.7 mm^3
T/C (breast cancer (MX-1); day 5): 74.7** %
Average volume of tumor, Average ±SE (breast cancer (MX-1); day 6): 565.5±36.7 mm^3
T/C (breast cancer (MX-1); day 6): 76.1** %
Average volume of tumor, Average ±SE (breast cancer (MX-1); day 7): 616.7±20.3 mm^3
T/C (breast cancer (MX-1); day 7): 64.3 **** %
Average volume of tumor, Average ±SE (breast cancer (MX-1); day 8): 786.0±40.0 mm^3
T/C (breast cancer (MX-1); day 8): 75.4*** %
Average volume of tumor, Average ±SE (breast cancer (MX-1); day 9): 869.0±33.2 mm^3
T/C (breast cancer (MX-1); day 9): 63.6*** %
Average volume of tumor, Average ±SE (breast cancer (MX-1); day 10): 957.9±38.1 mm^3
T/C (breast cancer (MX-1); day 10): 64.8*** %
Average volume of tumor, Average ±SE (breast cancer (MX-1); day 11): 1092.7±32.4 mm^3
T/C (breast cancer (MX-1); day 11): 69.5*** %
Average volume of tumor, Average ±SE (breast cancer (MX-1); day 15): 1540.5±106.6 mm^3
T/C (breast cancer (MX-1); day 15): 61.7** %
Average volume of tumor, Average ±SE (breast cancer (MX-1); day 18): 1821.0±127.4 mm^3
T/C (breast cancer (MX-1); day 18): 61.5*** %
Average volume of tumor, Average ±SE (breast cancer (MX-1); day 21): 2182.0±148.6 mm^3
T/C (breast cancer (MX-1); day 21): 64.5*** %
Average volume of tumor, Average ±SE (breast cancer (MX-1); day 25): 2671.7±154.5 mm^3
T/C (breast cancer (MX-1); day 25): 73.0** %
Average weight of tumor 21 days after transplantation ±SE (MM-46 breast cancer; 100 mg/kg/day ip×9): 560±283(6) mg
Number of tumorless mice /total number of mice (MM-46 breast cancer; 100 mg/kg/day ip×9): 0/6
T/C (MM-46 breast cancer; 100 mg/kg/day ip×9): 0.277
Average weight of tumor 21 days after transplantation ±SE (MM-46 breast cancer; 200 mg/kg/day po×9): 572±76(6) mg
Number of tumorless mice /total number of mice (MM-46 breast cancer; 200 mg/kg/day po×9): 0/7
T/C (MM-46 breast cancer; 200 mg/kg/day po×9): 0.258
Average weight of tumor after elapse of 14 days ± SE ([1]; 100 mg/kg, ip × 9 (D1~D9)): 191.1±38.8(7) mg
toxicity ([1]; 100 mg/kg.ip for 9 consecutive days, judged by increase of body weight, result in words): very slight toxicity
Average number of days of survival ±SE (methyl cholanthrene A [2]): 42.57±5.77(7) days
ILS (methyl cholanthrene A [2]): 61.3%
T/C (human lung cancer (OAT); 100 mg/kg, IP 1~6 (except for 4)): 77.4%
Tumorous activity T7/T0 (human lung cancer (OAT); 100 mg/kg, IP 1~6 (except for 4), group mean): 2.00±0.20
Tumorous activity T7/T0 (human lung cancer (OAT); 100 mg/kg, IP 1~6 (except for 4), individual mice): 2.25 and 1.60 and 2.15
Tumorous activity T7 (human lung cancer (OAT); 100 mg/kg, IP 1~6 (except for 4), size of tumor on 7th day, individual mice): 22.5 omu and 16.0 omu and 21,5 omu
antineoplastic activity (human lung cancer (OAT); result in words): strong antineoplastic activity

[NH3C3H7(iso)]s (Mo7O24] • 3H2O [Compound A]
acute toxicity (Test for acute toxicity; BALB/C mice, dose of 3,600 mg/kg): no toxicity
acute toxicity (Test for acute toxicity; nude mice, dose of 2,000 mg/kg ip): no toxicity
Average number of days of survival (methyl cholanthrene A [3]; No. 1, 100 mg/kg, ip×9): 42.3 ± 3.0 days
Number of toxically killed mice/total number of mice (methyl cholanthrene A [3]; No. 1, 100 mg/kg, ip×9): 0/8
Change in body weight (methyl cholanthrene A [3]; No. 1, 100 mg/kg): +2.50 g
T/control (methyl cholanthrene A [3]; No. 1, 100 mg/kg, ip×9, days of survival): 163.1
Average number of days of survival (methyl cholanthrene A [3]; No. 2, 50 mg/kg, ip×9): 31.8±2.2(8) days
Number of toxically killed mice/total number of mice (methyl cholanthrene A [3]; No. 2, 50 mg/kg, ip×9): 0/8
Change in body weight (methyl cholanthrene A [3]; No. 2, 50 mg/kg): +1.68 g
T/control (methyl cholanthrene A [3]; No. 2, 50 mg/kg, ip×9, days of survival): 131.8
T/control (methyl cholanthrene A [3]; period of survival): 63.1%
